Source: patent US11795151B2, “Benzotriazole compound” (MIYOSHI OIL & FAT CO., LTD., priority 2017, dated 2023)

Columns and labels:
Format in all cases: physicochemical
[1] = Evaluation of UV absorption performance (1): absorbance spectra in chloroform; conditions: 100 μM; for Absorbance at absorption peak in wavelength region of 350 to 390 nm / Absorbance at peak end / Absorption wavelength at peak end / Molar extinction coefficient at peak (maximum molar extinction coefficient: εmax) / Wave length at absorption peak in wavelength region of 350 to 390 nm (maximum absorption wavelength: λmax): 10-mm quartz cell; for Absolute value of slope of absorption peak on long wavelength side in wavelength region of 350 to 390 nm: Equation 2
Experimental: Compounds 1 to 12 were diluted with 100 μM of chloroform, placed in a 10-mm quartz cell, and the absorbance spectra were measured using an ultraviolet-visible spectrophotometer (V-550, manufactured by JASCO Corporation)(FIGS. 1 to 12).
The absorption peak (maximum absorption wavelength: λmax) and absorbance in the wavelength range of 350 to 390 nm were read from the absorption spectra of Compounds 1 to 12, and the molar extinction coefficient of the peak (maximum molar extinction coefficient: εmax) was obtained by the following equation (able 1). Molar extinction coefficient:εmax(L/(mol·cm))=A:Absorbance/[c:Mol concentration(mol/L)×1:Cell optical length(cm)] [Equation 1]
In addition, from the absorption spectra of Compounds 1 to 12, assuming that an intersection of a long-wavelength side absorption spectrum in the absorption peak at 350 to 390 nm and a baseline (a line where the slope of the absorption spectrum at 380 to 500 nm is zero) is set as a […] (for example: FIG. 1), the absolute value of the slope of the absorption peak on the long-wavelength side in the wavelength region at 350 to 390 nm was obtained by the following equation: |Slope of absorption peak on long wavelength side in wavelength region of 350 to 390 nm|=|(Absorbance at peak end−Absorbance at absorption peak in wavelength region of 350 to 390 nm)/(Absorption wavelength at peak end−Wave length at absorption peak in wavelength region of 350 to 390 nm)| [Equation 2]

[2] = Maximum solubility in various monomers; conditions: acrylonitrile as a vinyl-based monomer; same evaluation method
From the text: With the same evaluation method, 2 wt % of Compound 1, 5 wt % of Compound 2, 5 wt % of Compound 3, and 1 wt % of Compound 4 were each soluble in acrylonitrile as a vinyl-based monomer as well.

[3] = Maximum solubility in various monomers; conditions: room temperature (20 to 30° C.), 4 hours
[4] = Evaluation of 5% weight reduction temperature (1) (TG/DTA); conditions: temperature increasing rate 10° C./min, 25° C. to 550° C.
Experimental: (§1) Compounds 1 to 8 and 10 to 12 were measured using a differential thermogravimetric simultaneous measurement device (TG/DTA6200, manufactured by SII Corporation) at a temperature increasing rate of 10° C./min and within a measurement range of 25° C. to 550° C., and the temperature at which 5 wt % reduction as the weight change (TG) took place was read (Table 6).

[5] = Evaluation of UV absorption performance (2): absorbance spectra in chloroform; conditions: 100 μM; for Absorbance at absoprtion peak in wavelength region of 350 to 390 nm / Absorbance at peak end / Absorption wavelength at peak end / Molar extinction coefficient at peak (maximum molar extinction coefficient: εmax) / Wave length at absorption peak in wavelength region of 350 to 390 nm (maximum absorption wavelength: λmax): 10-mm quartz cell; for Absolute value of slope of absorption peak on long wavelength side in wavelength region of 350 to 390 nm: Equation 4
Experimental: Compounds 11 to 28 were diluted with 100 μM of chloroform and placed in a 10-mm quartz cell, and the absorbance spectra were measured using an ultraviolet-visible spectrophotometer (V-550, manufactured by JASCO Corporation)(FIGS. 11,12,14 to 29).
The absorption peak (maximum absorption wavelength: max) and absorbance in the wavelength range of 350 to 390 nm were read from the absorption spectra of Compounds 11 to 28, and a molar extinction coefficient (maximum molar extinction coefficient: εmax) of the peak was obtained by the following formula (Table 7): Molar extinction coefficient:εmax(L/(mol·cm))=A:Absorbance/[c:Mol concentration(mol/L)×1:Cell optical length(cm)] [Equation 3]
In addition, from the absorption spectra of Compounds 11 to 28, assuming that an intersection of a long-wavelength side absorption spectrum in the absorption peak at 350 to 390 nm and a baseline (a line where the slope of the absorption spectrum at […] is zero) is set as a peak end (for example: FIG. 1), the absolute value of the slope of the absorption peak on the long-wavelength side in the wavelength region at 350 to 390 nm was obtained by the following equation (Table 8): |Slope of absorption peak on long wavelength side in wavelength region of 350 to 390n|=|(Absorbance at peak end−Absorbance at absorption peak in wavelength region of 350 to 390 nm)/(Absorption wavelength at peak end−Wave length at absorption peak in wavelength region of 350 to 390 nm)| [Equation 4]

[6] = Evaluation of 5% weight reduction temperature (2) (TG/DTA); conditions: temperature increasing rate 10° C./min, 25° C. to 550° C.
Experimental: as §1, with “The compounds of the present invention” for “Compounds 1 to 8 and 10 to 12”, “w” for “wt”, “9).” for “6).”

Row | Structure (SMILES) | Absorbance at absorption peak in wavelength region of 350 to 390 nm [1] | Absorbance at peak end [1] | Absorption wavelength at peak end [1] | Molar extinction coefficient at peak (maximum molar extinction coefficient: εmax) [1] | Wave length at absorption peak in wavelength region of 350 to 390 nm (maximum absorption wavelength: λmax) [1] | Concentration soluble in acrylonitrile [2] | Maximum solubility ([3]; Dimethylacrylamide) | Maximum solubility ([3]; Hexadiene) | Maximum solubility ([3]; Methyl (meth)acrylate) | Maximum solubility ([3]; Styrene) | Maximum solubility ([3]; Vinyl acetate) | 5% weight reduction temperature [4] | Absolute value of slope of absorption peak on long wavelength side in wavelength region of 350 to 390 nm [1] | Absorbance at absoprtion peak in wavelength region of 350 to 390 nm [5] | Absorbance at peak end [5] | Absorption wavelength at peak end [5] | Molar extinction coefficient at peak (maximum molar extinction coefficient: εmax) [5] | Wave length at absorption peak in wavelength region of 350 to 390 nm (maximum absorption wavelength: λmax) [5] | Absolute value of slope of absorption peak on long wavelength side in wavelength region of 350 to 390 nm [5] | 5% weight reduction temperature [6]
1 | C=C(C)C(=O)OCCSc1ccc2nn(-c3cc(C)cc(C(C)(C)C)c3O)nc2c1 [Compound 2] | 2.25 | 0.00727 | 421 nm | 21400 L/mol/cm | 365 nm | 5 wt % | 15 wt % | 3 wt % | 20 wt % | 25 wt % | 15 wt % | 285 °C | – | – | – | – | – | – | – | –
2 | C=C(C)C(=O)OCCc1ccc(O)c(-n2nc3ccccc3n2)c1 [Compound 11, reference compound] | 1.83 | 0.0069 | 388 nm | 18300 L/mol/cm | 341 nm | – | 10 wt % | 2 wt % | 11 wt % | 21 wt % | 11 wt % | 249 °C | 0.038 | 1.83 | 0.0069 | 388 nm | 18300 L/mol/cm | 341 nm | 0.038 | –
3 | Cc1cc(-n2nc3ccc(Cl)cc3n2)c(O)c(C(C)(C)C)c1 [Compound 12, reference compound] | 1.53 | 0.00617 | 423 nm | 15300 L/mol/cm | 353 nm | – | – | – | – | – | – | 230 °C | 0.022 | 1.76 | 0.00722 | 430 nm | 16300 L/mol/cm | 353 nm | 0.032 | 230 °C
4 | Cc1ccc(Sc2ccc3nn(-c4cc(C)cc(C(C)(C)C)c4O)nc3c2)cc1 [Compound 30] | – | – | – | – | – | – | – | – | – | – | – | – | – | – | – | – | – | – | – | 293 °C

Other lines, results leading:

Row | Absorbance at absorption peak in wavelength region of 350 to 390 nm [1] | Absorbance at peak end [1] | Absorption wavelength at peak end [1] | Molar extinction coefficient at peak (maximum molar extinction coefficient: εmax) [1] | Wave length at absorption peak in wavelength region of 350 to 390 nm (maximum absorption wavelength: λmax) [1] | Concentration soluble in acrylonitrile [2] | Maximum solubility ([3]; Dimethylacrylamide) | Maximum solubility ([3]; Hexadiene) | Maximum solubility ([3]; Methyl (meth)acrylate) | Maximum solubility ([3]; Styrene) | Maximum solubility ([3]; Vinyl acetate) | 5% weight reduction temperature [4] | Absolute value of slope of absorption peak on long wavelength side in wavelength region of 350 to 390 nm [1] | Absorbance at absoprtion peak in wavelength region of 350 to 390 nm [5] | Absorbance at peak end [5] | Absorption wavelength at peak end [5] | Molar extinction coefficient at peak (maximum molar extinction coefficient: εmax) [5] | Wave length at absorption peak in wavelength region of 350 to 390 nm (maximum absorption wavelength: λmax) [5] | Absolute value of slope of absorption peak on long wavelength side in wavelength region of 350 to 390 nm [5] | 5% weight reduction temperature [6] | Structure (SMILES)
5 | 2.26 | 0.00766 | 422 nm | 22600 L/mol/cm | 368 nm | 2 wt % | 20 wt % | 10 wt % | 20 wt % | 25 wt % | 15 wt % | – | – | – | – | – | – | – | – | – | C=CC(=O)OCCCCCCSc1ccc2nn(-c3cc(C)cc(C(C)(C)C)c3O)nc2c1 [Compound 1]
6 | 2.18 | 0.00692 | 419 nm | 21600 L/mol/cm | 367 nm | 5 wt % | 11 wt % | 5 wt % | 20 wt % | 25 wt % | 12 wt % | 292 °C | – | – | – | – | – | – | – | – | C=C(C)C(=O)OCCCSc1ccc2nn(-c3cc(C)cc(C(C)(C)C)c3O)nc2c1 [Compound 3]
7 | 2.24 | 0.00762 | 420 nm | 22400 L/mol/cm | 368 nm | 1 wt % | – | – | 12 wt % | 25 wt % | – | – | – | – | – | – | – | – | – | – | C=C(C)C(=O)OCCCCCCSc1ccc2nn(-c3cc(C)cc(C(C)(C)C)c3O)nc2c1 [Compound 4]
8 | 2.19 | 0.00728 | 422 nm | 21900 L/mol/cm | 368 nm | – | – | – | – | – | – | 304 °C | – | – | – | – | – | – | – | – | C/C=C/C(=O)OCCCCCCSc1ccc2nn(-c3cc(C)cc(C(C)(C)C)c3O)nc2c1 [Compound 7]
9 | 1.76 | 0.00722 | 430 nm | 17600 L/mol/cm | 375 nm | – | ≤9 wt % | 1 wt % | ≤10 wt % | ≤20 wt % | ≤10 wt % | 252 °C | 0.032 | – | – | – | – | – | – | – | C=CCSc1ccc2nn(-c3cc(C)cc(C(C)(C)C)c3O)nc2c1 [Compound 10, reference compound]
10 | – | – | – | – | – | – | – | – | – | – | – | – | – | – | – | – | – | – | – | 277 °C | CCCCCCSc1ccc2nn(-c3cc(C)cc(C(C)(C)C)c3O)nc2c1 [Compound 29]
